Laboratory results from patent publication US11358947B2, “Substituted 2-acylamino-cycloalkylthiophene-3-carboxylic acid arylamides as inhibitors of calcium-activated chloride channel TMEM16A” (THE REGENTS OF THE UNIVERSITY OF CALIFORNIA, priority 2017, dated 2022).
Entries after “also recorded” stand apart in the source; their conditions may differ.

How the values were obtained:
[1] = In vitro metabolic stability with rat liver microsomes and NADPH; assay type: in vitro ADME
Description: (3B) LC/MS traces showing total ion counts as a function of incubation time.
These compounds were incubated with rat liver microsomes and NADPH, and non-metabolized compounds were quantified by ESI-LCMS. […] It is speculated that Ani-9 could be oxidized at the aryl methyl or N—N bond; or hydrolyzed at the amide or hydrazone linkages.
Compounds (each 10 uM) were incubated for specific time points (2, 5, 15, 30, 60, 180 min) with shaking at 37° C. with rat liver microsomes (1 mg protein/mL, Sigma-Aldrich, St. Louis, Mo.) in potassium phosphate butler (100 mM) containing 1 mM NADPH. The mixture was then chilled on ice, and 0.5 mL of ice-cold ethyl acetate was added. Samples were centrifuged for 15 min at 3000 RPM. The supernatant was evaporated to dryness, and the residue was dissolved in 80 μL of mobile phase (acetonitrile:/water, 3:1, containing 0.1% formic acid) for LC/MS. Reverse-phase HPLC separation was carried out using a Waters C18 column (2.1 mm×100 mm, […]) equipped with a solvent delivery system (Waters model 2690, Milford, Mass.).

[2] = system: rat made hypertensive with phenylephrine; experiment: Blood pressure in anesthetized rat made hypertensive with phenylephrine; assay type: in vivo; settings: phenylephrine 0.25 mg IV, then 0.3 mg compound IV, femoral artery catheter
Description: TMEM16A is expressed in vascular smooth muscle and its inhibition may reduce blood pressure. […] Blood pressure was measured by femoral artery catheter.

mouse ileum = experiment: Ex vivo intestinal contractility of mouse ileum; settings: increasing concentrations added to bath
Description: The effect of a compound according to one embodiment on intestinal contractility was determined in an ex vivo preparation of mouse ileum. Adult mice (CD1 genetic background) were euthanized by avertin overdose (200 mg/kg, 2,2,2-tribromethanol, Sigma-Aldrich) and ileal segments of ˜2 cm length were isolated and washed with Krebs-Henseleit buffer (pH 7.4, in mM: 118 NaCl, 4.7 KCl, 1.2 MgSO4, 1.2 KH2PO4, 25 NaHCO3, 2.5 CaCl2, 11 D-glucose). […] Tissues were stabilized for 60 min with resting tension of 0.5 g and solutions were changed every 15 min.

[3] = Pharmacokinetics in rats, serum concentration after IP or oral dosing; assay type: in vivo; settings: rat
Description: The pharmacokinetics of compounds according to certain embodiments was studied in rats. […] After treatments blood samples were collected by tail vein puncture at specified time points (15, 30, 60, 120 and 180 min). Serum was separated by centrifuging blood samples at 5000 rpm for 15 min. […] The aliquot was then diluted to a total of 2 mL in PBS. A C18 solid-phase extraction (SPE) column (Thermo Fisher, Waltham, Mass.) was conditioned with methanol (2 mL) and PBS (2 mL). The aliquot was loaded onto the conditioned SPE column, and washed with PBS (2 mL) followed by water (2 mL), and the column then dried under vacuum for 5 min. Analytes were eluted with ethyl acetate (3 mL), and concentrated by rotary evaporation. The residues were reconstituted into methanol (150 μL), and then analyzed using a hybrid quadrupole Q-Exactive Orbitrap mass analyzer (Thermo Fisher, Waltham, Mass.), with an electrospray ionization source, employing parallel-reaction monitoring (PRM) to provide high analytical sensitivity.

TMEM16B = molecular target: T1, TMEM16B (Homo sapiens, UniProt Q9NQ90); experiment: TMEM16B fluorescence plate reader assay in FRT cells; assay type: cell-based
T1 construct: expressed in transfected cells; host or cells: Fischer Rat Thyroid (FRT) cells co-expressing YFP
T1 sequence (Q9NQ90 1-998): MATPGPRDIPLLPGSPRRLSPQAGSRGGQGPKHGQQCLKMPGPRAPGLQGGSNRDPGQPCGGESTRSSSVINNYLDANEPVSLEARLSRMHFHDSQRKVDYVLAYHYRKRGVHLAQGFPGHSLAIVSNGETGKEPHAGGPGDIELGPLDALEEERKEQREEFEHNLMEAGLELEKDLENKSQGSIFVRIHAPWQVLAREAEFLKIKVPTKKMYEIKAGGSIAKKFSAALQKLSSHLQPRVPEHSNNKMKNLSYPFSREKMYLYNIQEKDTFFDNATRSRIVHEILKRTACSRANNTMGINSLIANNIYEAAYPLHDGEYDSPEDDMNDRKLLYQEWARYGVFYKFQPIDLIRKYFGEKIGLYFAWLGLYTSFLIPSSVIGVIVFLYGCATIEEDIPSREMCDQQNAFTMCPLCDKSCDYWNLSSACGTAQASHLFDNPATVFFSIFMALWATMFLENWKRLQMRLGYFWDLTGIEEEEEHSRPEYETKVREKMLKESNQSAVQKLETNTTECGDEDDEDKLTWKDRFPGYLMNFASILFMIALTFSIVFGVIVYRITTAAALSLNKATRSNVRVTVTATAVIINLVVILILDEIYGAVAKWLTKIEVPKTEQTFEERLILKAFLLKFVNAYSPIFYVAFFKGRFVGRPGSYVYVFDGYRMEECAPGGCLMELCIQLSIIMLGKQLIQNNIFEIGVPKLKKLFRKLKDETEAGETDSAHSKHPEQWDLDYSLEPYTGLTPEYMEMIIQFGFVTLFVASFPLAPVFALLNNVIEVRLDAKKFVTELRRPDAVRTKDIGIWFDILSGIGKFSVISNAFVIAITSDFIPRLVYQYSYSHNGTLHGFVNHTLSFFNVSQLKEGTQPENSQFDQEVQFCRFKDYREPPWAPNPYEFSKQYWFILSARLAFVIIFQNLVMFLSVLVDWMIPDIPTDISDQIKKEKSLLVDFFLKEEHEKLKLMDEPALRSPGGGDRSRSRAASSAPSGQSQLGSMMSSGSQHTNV
Description: (§1) Concentration-dependent inhibition of TMEM16A measured by short-circuit current assay; TMEM16B and non-TMEM16 anion conductance measured using a fluorescence plate reader assay using FRT and HT-29 cells respectively; cell viability measured in FRT null cells.
(§2) We further assayed the compound potency on endogenous non-TMEM16A. Ca^2+-activated Cl^− channel in HT-29 cells.
TMEM16A functional assay. TMEM16A functional plate-reader assay was done as previously described. […] Test compounds (0.5 μl in DMSO) were added to each well at specified concentration. […] The initial rate of I− influx following each of the solution additions was computed from fluorescence data by nonlinear regression. TMEM16B activity was assayed similarly as described using FRT cells co-expressing YFP and TMEM16B.

[4] = system: non-TMEM16A Ca2+-activated Cl- channel in HT-29 cells; experiment: Non-TMEM16A CaCC plate reader assay in HT-29 cells expressing YFP; assay type: cell-based; settings: Homo sapiens, non-TMEM16 anion conductance, fluorescence plate reader assay
Description: as §1, §2
Plate reader assays of chloride channel function, CFTR inhibition was assayed as described. […] Activity of non-TMEM16A CaCC was assayed as described in HT-29 cells expressing YFP.

Structure (SMILES) | Compound remaining ([1]; rat liver microsomes + NADPH, 10 uM, 180 min) [%] | Metabolic stability compared to Ani-9 (in words) ([1]; time course of compound degradation, rat liver microsomes) | Effect on blood pressure [2] | Effect on spontaneous isometric contractions of ileum (mouse ileum) | Toxic effect (in words) ([3]; 4 mg/kg IP or oral) | Serum concentration ([3]; 4 mg/kg intraperitoneal, for up to 2 h) | Peak serum concentration ([3]; 4 mg/kg intraperitoneal, peak at 60 min) [µM] | Serum concentration ([3]; 4 mg/kg oral, for 3 h) | Peak serum concentration ([3]; 4 mg/kg oral, peak at 2 h) [µM] | Detectability in serum (in words) ([3]; after intraperitoneal (IP) or oral administration (PO)) | IC50 (TMEM16B) [nM] | IC50 [4] [nM]
Cc1ccccc1NC(=O)c1c(NC(=O)C(F)(F)Br)sc2c1CCCCC2 [Compound 6bm, 2-(2-Bromo-2,2-difluoro-acetylamino)-5,6,7,8-tetrahydro-4H-cyclohepta[b]thiophene-3-carboxylic acid o-tolylamide] | ~30 | remarkably greater stability | acute reduction in blood pressure | strongly inhibited; also recorded: suppression of isometric smooth muscle contractions | No toxic effect was seen | greater than 3.5 μM | 6.5 | greater than 0.5 μM | 1.9 | detectable at pharmacologically relevant concentrations | – | –
Cc1ccccc1NC(=O)c1c(NC(=O)C(F)(F)F)sc2c1CCCCC2 [Compound 6aa, 2-(2,2,2-Trifluoro-acetylamino)-5,6,7,8-tetrahydro-4H-cyclohepta[b]thiophene-3-carboxylic acid o-tolylamide] | – | – | – | – | – | – | – | – | – | – | 1400 | 4000
